Legend:
[1] = test system: murine mammary 16/C adenocarcinoma; test: Example A: tumor regression by ADM with or without electrostatic field exposure in tumor-bearing mice; type: in vivo, B6C3F1 mouse
Excerpt: The inventor's research protocol used the B6C3F1 mouse strain. […] For the inventor's studies, female mice were implanted with murine mammary 16/C adenocarcinoma, a commonly used tumor for cancer research. […] Approximately equal-sized tumor fragments were implanted in each mouse's axillary region through a puncture in the inguinal region. All test animals were approximately six weeks old, with a body weight of 17 to 20 grams at the time of implant. Also, food and water were provided ad libitum throughout each study, and all Groups were exposed to the same temperature and light conditions (lights on 12 hours and off 12 hours each day). The studies were blinded in both the assignment of the animals to the study groups, and in all tumor measurements.
In the first study noted here, four groups of 11 tumor bearing animal each were used. […] All of the animals were treated with 12 mg/kg ADM on day 4, and housed in cages containing an insulated metal screen suspended 25.4-mm above the animals.
GA: Control, treated with ADM and no electrostatic field exposure. The screen above animals was not charged.
GB: The screen was charged, and changed from positive to negative 15 kV DC once each 15 minutes.
GC: The screen was charged 15 kV DC, and changed from positive to negative once each 15 minutes. The animals were on a grounded wire grid cage floor (115 mm between the screen and floor).
GD: The screen was charged, and changed from positive to negative 15 kV once each 15 minutes. There was no ground plane nearby.

B6C3F1 mouse = test: Example B: animal deaths after ADM with or without electrostatic field exposure in tumor-bearing mice; type: in vivo; design: key to animal death: “X” indicates an animal death
Excerpt: Before methods for practicing the present invention are discussed, it will be helpful to note the results of examples of the inventor's studies with animals exposed to electrostatic fields, and to electrostatic fields and chemicals in combination. The total scope of the inventor's studies regarding electrostatic field influence inside a living body has involved over 350 tumor bearing rodents, however for the sake of brevity only four such studies will be noted here. The inventor's research protocol used the B6C3F1 mouse strain. This mouse is recognized by the National Cancer Institute as one Standard for chemotherapy research, and is one of the commonly accepted rodent species used in cancer studies. For the inventor's studies, female mice were implanted with murine mammary 16/C adenocarcinoma, a commonly used tumor for cancer research. The 16/C murine mammary tumor is particularly aggressive, and can normally grow from a barely visible, or even invisible, bump under the skin the day after the implant, to 10 to 20 percent of the animal's total body weight by day 14 (tumor size typically up to 4 grams). Approximately equal-sized tumor fragments were implanted in each mouse's axillary region through a puncture in the inguinal region. All test animals were approximately six weeks old, with a body weight of 17 to 20 grams at the time of implant. Also, food and water were provided ad libitum throughout each study, and all Groups were exposed to the same temperature and light conditions (lights on 12 hours and off 12 hours each day). The studies were blinded in both the assignment of the animals to the study groups, and in all tumor measurements.
After the tumors were allow to establish and grow for several days, the mice were treated with adriamycin (ADM), a commonly used chemotherapeutic agent, at dose levels based on their individual weight and known to be safe. Following this, the animals were blindly divided into the study groups. The growth rate of the tumors in a Control Group, without exposure to electrostatic fields, was compared to that of Test Groups that were under the influence of an electrostatic field. Tumor measurements were made by caliper using the prolate ellipsoid formula of the National Cancer Institute to convert the measurements into weight. This method allowed the tumor weight of each animal to be tracked throughout the study.
The mice in each Test Group were subjected to electrostatic fields with the use of special cages. When the application of electrostatic fields was required, special equipment was used to expose the desired animal groups to an electrostatic field with an intensity of approximately 79,000 V/m from a charged element insulated from the animals.
This study used three groups of 11 tumor-bearing animals each. There was not a statistical difference in the size of the animal tumors at the start of the study. All of the animals were treated twice with 8 mg/kg ADM given on days 3 and 5 (16 mg/kg total). In addition, Groups B&C were exposed to an electrostatic field for 4 hours following each injection.
GA: Control, treated with ADM and no electrostatic field exposure.
GB: ADM plus exposure to a negative 15 kV DC charged screen 25.4 mm above, with a grounded grid below, the animals (90 mm between screen and grid).
GC: ADM plus exposure to 15 minute cycles of positive then negative 15 kV DC on a screen 25.4 mm above, with a grounded grid below, the animals (90 mm between screen and grid).
In this study the inventor inadvertently allowed the applied electrostatic fields in Groups B and C to increase the affect of the ADM to a lethal level. […] The electrostatic fields Groups B and C were exposed to increased the reaction of body cells to the ADM, creating the effect of a lethal overdose. […]

With `COc1cccc2c1C(=O)c1c(O)c3c(c(O)c1C2=O)C[C@@](O)(C(=O)CO)C[C@@H]3O[C@H]1C[C@H](N)[C@H](O)[C@H](C)O1` [ADM, adriamycin] the tumor wt. loss ([1]; GA: 12 mg/kg ADM on day 4, no electrostatic field exposure (screen not charged)) was −24%, the tumor wt. loss ([1]; GB: 12 mg/kg ADM on day 4 plus screen changed positive to negative 15 kV DC each 15 minutes, grounded wire grid below cage) was −86% and the tumor wt. loss ([1]; GC: 12 mg/kg ADM on day 4 plus screen 15 kV DC changed positive to negative each 15 minutes, animals on grounded wire grid cage floor) was −80%. The tumor wt. loss ([1]; GD: 12 mg/kg ADM on day 4 plus screen changed positive to negative 15 kV each 15 minutes, no ground plane nearby) was −75%, the ill affect (B6C3F1 mouse; GA: 8 mg/kg ADM days 3 and 5, without exposure to a static field) was “no ill affect until day 30” and the animal death (B6C3F1 mouse; Group A: 8 mg/kg ADM days 3 and 5, no field, day 30 (death from tumor, not ADM)) was “X”. For the same molecule, the animal death (B6C3F1 mouse; Group B: 8 mg/kg ADM days 3 and 5 plus negative 15 kV DC field 4 hours after each injection, day 12) was “XXX”, the animal death (B6C3F1 mouse; Group B: 8 mg/kg ADM days 3 and 5 plus negative 15 kV DC field 4 hours after each injection, day 18) was “X” and the animal death (B6C3F1 mouse; Group B: 8 mg/kg ADM days 3 and 5 plus negative 15 kV DC field 4 hours after each injection, day 19) was “X”. The animal death (B6C3F1 mouse; Group B: 8 mg/kg ADM days 3 and 5 plus negative 15 kV DC field 4 hours after each injection, day 22) was “X”, the animal death (B6C3F1 mouse; Group B: 8 mg/kg ADM days 3 and 5 plus negative 15 kV DC field 4 hours after each injection, day 28) was “X” and the animal death (B6C3F1 mouse; Group C: 8 mg/kg ADM days 3 and 5 plus 15 minute cycles of positive then negative 15 kV DC field 4 hours after each injection, day 11) was “X”. For the same molecule, the animal death (B6C3F1 mouse; Group C: 8 mg/kg ADM days 3 and 5 plus 15 minute cycles of positive then negative 15 kV DC field 4 hours after each injection, day 12) was “XXXXX” and the “necropsy of the dead animals” value (B6C3F1 mouse; Groups B and C: 8 mg/kg ADM days 3 and 5 plus electrostatic field) was “obvious heart enlargement”.

Source: US6488564B1, “Brassiere protecting against eletrostatic field induced tissue degradation” (priority 1999, dated 2002)
